In patent US12655116B2, “Substituted isophthalic acid diamides” (Bayer Aktiengesellschaft, priority 2020, dated 2026):

Experiments:
PHBPU = test: Post-emergence herbicidal action against PHBPU; type: in vivo, Pharbitis purpurea
Summary of the method: (§1)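 Herbicidal action is a visual percentage rating (0% = as untreated control, 100% = plants dead) made roughly 3 weeks after treatment. Plants were grown in sandy loam in the greenhouse and treated at the one-leaf stage, 2 to 3 weeks post-sowing. Treatment was a foliar spray of wettable-powder or emulsion-concentrate formulations at 600 to 800 l/ha water plus 0.2% wetting agent.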

DIGSA [1] = test: Post-emergence herbicidal action against DIGSA; type: in vivo, Digitaria sanguinalis
Summary of the method: as §1

LOLRI = test: Pre-emergence herbicidal action against LOLRI; type: in vivo, Lolium rigidum; settings: 80 g/ha; for pest or weed control at 80 g/ha: Lolium rigidum, 504 h
Text: Seeds of monocotyledonous and dicotyledonous weed plants and crop plants are laid out in sandy loam soil in wood-fiber pots and covered with soil. The compounds of the invention, formulated in the form of wettable powders (WP) or as emulsion concentrates (EC), are then applied to the surface of the covering soil in the form of an aqueous suspension or emulsion at a water application rate equivalent to 600 to 800 l/ha, with addition of 0.2% wetting agent. After the treatment, the pots are placed in a greenhouse and kept under good growth conditions for the trial plants. The damage to the test plants is scored visually after a test period of 3 weeks by comparison with untreated controls (herbicidal activity in percent (%): 100% activity=the plants have died, 0% activity=like control plants). […] The tables below illustrate, in an illustrative manner, the post-emergence herbicidal action of the compounds of the invention, the herbicidal activity being stated in percent.

ABUTH [2] = test: Post-emergence herbicidal action against ABUTH; type: in vivo, Abutilon theophrasti; settings: visual assessment about 3 weeks after treatment vs untreated controls
Summary of the method: as §1

SETVI [3] = test: Pre-emergence herbicidal action against SETVI; type: in vivo, Setaria viridis
Summary of the method: (§2)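 Sandy loam pots, seeds covered with soil, then surface-treated with WP or EC formulations at 600–800 l/ha water plus 0.2% wetting agent. Greenhouse, 3 weeks. Percent damage vs untreated controls.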

ALOMY [4] = test: Pre-emergence herbicidal action against ALOMY; type: in vivo, Alopecurus myosuroides
Summary of the method: as §2

MATIN [5] = test: Pre-emergence herbicidal action against MATIN; type: in vivo, Matricaria inodora
Summary of the method: as §2

AMARE [6] = test: Pre-emergence herbicidal action against AMARE; type: in vivo, Amaranthus retroflexus; settings: for pest or weed control at 20 g/ha / pest or weed control at 80 g/ha: Amaranthus retroflexus, 504 h
Summary of the method: as §2

DIGSA [7] = test: Pre-emergence herbicidal action against DIGSA; type: in vivo, Digitaria sanguinalis
Summary of the method: as §2

ECHCG [8] = test: Pre-emergence herbicidal action against ECHCG; type: in vivo, Echinochloa crus-galli; settings: 80 g/ha; for pest or weed control at 80 g/ha: Echinochloa crus-galli, 504 h
Summary of the method: as §2

ECHCG [9] = test: Post-emergence herbicidal action against ECHCG; type: in vivo, Echinochloa crus-galli
Summary of the method: as §1

SETVI [10] = test: Post-emergence herbicidal action against SETVI; type: in vivo, Setaria viridis
Summary of the method: as §1

ABUTH [11] = test: Pre-emergence herbicidal action against ABUTH; type: in vivo, Abutilon theophrasti
Summary of the method: as §2

VERPE [12] = test: Post-emergence herbicidal action against VERPE; type: in vivo, Veronica persica; settings: 20 g/ha; for pest or weed control at 20 g/ha: Veronica persica, 504 h
Summary of the method: as §1

VERPE [13] = test: Pre-emergence herbicidal action against VERPE; type: in vivo, Veronica persica; settings: dosage 80 g/ha
Summary of the method: as §2

AMARE [14] = test: Post-emergence herbicidal action against AMARE; type: in vivo, Amaranthus retroflexus; settings: 20 g/ha, visual assessment about 3 weeks after treatment, 100% = plants have died, 0% = like control plants; for pest or weed control at 20 g/ha: Amaranthus retroflexus, 504 h
Summary of the method: as §1

ALOMY [15] = test: Post-emergence herbicidal action against ALOMY; type: in vivo, Alopecurus myosuroides; settings: visual assessment about 3 weeks after treatment vs untreated controls; for pest or weed control at 5 g/ha / pest or weed control at 20 g/ha: Alopecurus myosuroides, 504 h; for pest or weed control at 5 g/ha: dosage 5 g/ha
Summary of the method: as §1

VIOTR [16] = test: Pre-emergence herbicidal action against VIOTR; type: in vivo, Viola tricolor
Summary of the method: as §2

AVEFA = test: Pre-emergence herbicidal action against AVEFA; type: in vivo, Avena fatua; settings: Avena fatua, 504 h, pre-emergence; for pest or weed control at 20 g/ha: scored visually after 3 weeks, 100% = plants have died, 0% = like control plants
Summary of the method: as §2

VIOTR [17] = test: Post-emergence herbicidal action against VIOTR; type: in vivo, Viola tricolor; settings: Viola tricolor, 504 h
Summary of the method: as §1

MATIN [18] = test: Post-emergence herbicidal action against MATIN; type: in vivo, Matricaria inodora; settings: Tripleurospermum inodorum, 504 h, dosage 20 g/ha
Summary of the method: as §1

[19] = 20 g/ha, scored visually after 3 weeks vs untreated controls, 100% = plants have died, 0% = like control plants
[20] = 80 g/ha, scored visually after 3 weeks vs untreated controls (100% = plants have died, 0% = like control plants)
[21] = Ipomoea purpurea, 504 h, dosage 20 g/ha
[22] = Abutilon theophrasti, 504 h, dosage 20 g/ha
[23] = Setaria viridis, 504 h, dosage 20 g/ha
[24] = Setaria viridis, 504 h, dosage 80 g/ha
[25] = Alopecurus myosuroides, 504 h, 80 g/ha, pre-emergence, scored visually after 3 weeks vs untreated controls (100% = plants have died, 0% = like control plants)
[26] = Tripleurospermum inodorum, 504 h, dosage 80 g/ha
[27] = 80 g/ha, scored visually after 3 weeks vs untreated controls, 100% = plants have died, 0% = like control plants
[28] = Echinochloa crus-galli, 504 h, dosage 20 g/ha
[29] = Abutilon theophrasti, 504 h, 80 g/ha, scored visually after 3 weeks vs untreated controls (100% = plants have died, 0% = like control plants)
[30] = Viola tricolor, 504 h, dosage 80 g/ha

COCCNC(=O)c1c(C(F)(F)F)ccc(C(=O)Nc2nnnn2C)c1C [Example 1-34]
80%: Post-emergence action against DIGSA in % (DIGSA [1]; 5 g/ha) | Pre-emergence action against LOLRI in % (LOLRI) | Pre-emergence action against ALOMY (ALOMY [4]; 20 g/ha, scored visually after 3 weeks, 100% = plants have died, 0% = like control plants) | Post-emergence action against SETVI in % (SETVI [10]; dosage 5 g/ha) | Pre-emergence action against ABUTH (herbicidal activity in percent) (ABUTH [11]; dosage 20 g/ha, scored visually after 3 weeks vs untreated controls, 100% = plants have died, 0% = like control plants)
100%: Post-emergence action against ABUTH in % (ABUTH [2]; dosage 20 g/ha) | Pre-emergence action against SETVI in % (SETVI [3]; dosage 80 g/ha) | Pre-emergence action against ALOMY (herbicidal activity) (ALOMY [4]; 80 g/ha, pre-emergence, scored visually after 3 weeks vs untreated controls (100% = plants have died, 0% = like control plants)) | Pre-emergence action against AMARE in % (AMARE [6]; [19]) | Pre-emergence action against AMARE in % (AMARE [6]; [20]) | Pre-emergence action against DIGSA in % (DIGSA [7]; dosage 20 g/ha) | Pre-emergence action against DIGSA in % (DIGSA [7]; dosage 80 g/ha) | Pre-emergence action against ABUTH (herbicidal activity) (ABUTH [11]; [20]) | Pre-emergence action against VERPE in % (VERPE [13]) | Post-emergence action at 20 g/ha against AMARE in % (AMARE [14]) | Pre-emergence action against VIOTR in % (VIOTR [16]; dosage 20 g/ha) | Pre-emergence action against VIOTR in % (VIOTR [16]; dosage 80 g/ha)
90%: Post-emergence action against PHBPU in % (PHBPU; dosage 5 g/ha) | Post-emergence action against PHBPU in % (PHBPU; dosage 20 g/ha) | Post-emergence action against DIGSA (DIGSA [1]; 20 g/ha) | Post-emergence action against ABUTH in % (ABUTH [2]; dosage 5 g/ha) | Pre-emergence action against MATIN in % (MATIN [5]; dosage 80 g/ha) | Pre-emergence action against ECHCG in % (ECHCG [8]) | Post-emergence action against ECHCG in % (ECHCG [9]; dosage 5 g/ha) | Post-emergence action against ECHCG in % (ECHCG [9]; dosage 20 g/ha) | Post-emergence action against SETVI in % (SETVI [10]; dosage 20 g/ha) | Post-emergence action against VERPE in % (VERPE [12]) | Post-emergence action against ALOMY in % (ALOMY [15]; dosage 20 g/ha)

CNC(=O)c1c(I)ccc(C(=O)Nc2nnnn2C)c1Cl [Example 1-195]
80%: pest or weed control at 5 g/ha (PHBPU; Ipomoea purpurea, 504 h, dosage 5 g/ha) | pest or weed control at 20 g/ha (PHBPU; [21]) | pest or weed control at 80 g/ha (LOLRI) | pest or weed control at 20 g/ha (ABUTH [2]; [22]) | pest or weed control at 20 g/ha (AVEFA) | pest or weed control at 20 g/ha (ECHCG [9]; [28]) | pest or weed control at 20 g/ha (VERPE [12]) | pest or weed control at 20 g/ha (MATIN [18])
100%: pest or weed control at 20 g/ha (VIOTR [17]) | pest or weed control at 80 g/ha (SETVI [3]; [24]) | pest or weed control at 80 g/ha (MATIN [5]; [26]) | pest or weed control at 80 g/ha (AMARE [6]; [27]) | pest or weed control at 80 g/ha (ECHCG [8]) | pest or weed control at 5 g/ha (SETVI [10]; Setaria viridis, 504 h, dosage 5 g/ha) | pest or weed control at 20 g/ha (SETVI [10]; [23]) | pest or weed control at 80 g/ha (ABUTH [11]; [29]) | pest or weed control at 20 g/ha (AMARE [14]) | pest or weed control at 20 g/ha (ALOMY [15]; dosage 20 g/ha) | pest or weed control at 20 g/ha (VIOTR [16]; Viola tricolor, 504 h, dosage 20 g/ha) | pest or weed control at 80 g/ha (VIOTR [16]; [30])
90%: pest or weed control at 80 g/ha (AVEFA) | pest or weed control at 5 g/ha (VIOTR [17]; 5 g/ha) | pest or weed control at 20 g/ha (SETVI [3]; [23]) | pest or weed control at 80 g/ha (ALOMY [4]; [25]) | pest or weed control at 20 g/ha (ALOMY [4]; Alopecurus myosuroides, pre-emergence, 504 h, 20 g/ha, scored visually after 3 weeks, 100% = plants have died, 0% = like control plants) | pest or weed control at 20 g/ha (MATIN [5]; Tripleurospermum inodorum, 504 h, dosage 20 g/ha) | pest or weed control at 20 g/ha (AMARE [6]; [19]) | pest or weed control at 20 g/ha (ABUTH [11]; Abutilon theophrasti, 504 h, dosage 20 g/ha, scored visually after 3 weeks vs untreated controls, 100% = plants have died, 0% = like control plants, read-out: Pre-emergence action against ABUTH (herbicidal activity in percent)) | pest or weed control at 5 g/ha (ALOMY [15])

CCNC(=O)c1c(Br)ccc(C(=O)Nc2nnnn2C)c1Br [Example 1-343]
90%: pest or weed control at 5 g/ha (ABUTH [2]; Abutilon theophrasti, 504 h, dosage 5 g/ha) | pest or weed control at 20 g/ha (ABUTH [2]; [22]) | pest or weed control at 80 g/ha (ECHCG [8]) | pest or weed control at 20 g/ha (ECHCG [9]; [28]) | pest or weed control at 5 g/ha (ALOMY [15])
80%: pest or weed control at 20 g/ha (PHBPU; [21]) | pest or weed control at 80 g/ha (LOLRI) | pest or weed control at 80 g/ha (AVEFA) | pest or weed control at 20 g/ha (AVEFA) | pest or weed control at 20 g/ha (VIOTR [17]) | pest or weed control at 5 g/ha (ECHCG [9]; Echinochloa crus-galli, 504 h, dosage 5 g/ha) | pest or weed control at 20 g/ha (VERPE [12]) | pest or weed control at 80 g/ha (VERPE [13]; Veronica persica, 504 h)
100%: pest or weed control at 80 g/ha (SETVI [3]; [24]) | pest or weed control at 80 g/ha (ALOMY [4]; [25]) | pest or weed control at 80 g/ha (MATIN [5]; [26]) | pest or weed control at 20 g/ha (AMARE [6]; [19]) | pest or weed control at 80 g/ha (AMARE [6]; [27]) | pest or weed control at 20 g/ha (SETVI [10]; [23]) | pest or weed control at 80 g/ha (ABUTH [11]; [29]) | pest or weed control at 20 g/ha (AMARE [14]) | pest or weed control at 20 g/ha (ALOMY [15]; dosage 20 g/ha) | pest or weed control at 80 g/ha (VIOTR [16]; [30])
